The IC50 is the concentration that inhibits the measured activity by half.

What all share (design): species or system human
One experiment deals with R1.2 (HCT116-RDAC). Kind of experiment: MTT based cell survival assay, DAC resistant HCT116 clone R1.2. The note with it: for fold change (resistance index): IC50 R1.2 / IC50 HCT116. As for the experimental part:
(§1) The DAC resistant HCT116 cell lines were developed using two methods.
(§2) The method is primarily based on reduction of yellow colored tetrazolium salt, 3-(4,5-dimethylthiazol-2-yl)-2,5-diphenyltetrazolium bromide (MTT) to insoluble purple colored formazan crystals by NAD(P)H-dependent oxidoreductase enzymes in mitochondria of the viable cell.
(§3) Cells in 80 μL of medium were plated in each of the experimental and the control wells, followed by addition of 20 μL medium with five-fold drug concentration to experimental wells. The wells with medium alone were included alongside as blank for absorbance readings. After 72 h of drug treatment, 10 μL MTT (Sigma-Aldrich) prepared in 1×PBS (5 mg/mL) was added to all wells including blank and control, and incubated until the purple formazan crystals were visible after which 100 μL of detergent (10% SDS, pH: 5.5) was added and the plates were incubated overnight to solubilize the formazan and the cellular material.
(§4) Cross resistance was determined as the fold increase, whereas, the sensitivity was determined as the fold decrease in the IC50 of the drugs for the resistant cell lines compared to their genetically identical drug sensitive counterpart.

For another experiment, the system named is R1.3 (HCT116-RDAC). Kind of experiment: MTT based cell survival assay, DAC resistant HCT116 clone R1.3. The conditions noted are these: for fold change (resistance index): IC50 R1.3 / IC50 HCT116. As to the method:
as §1, §2, §3, §4

A further experiment concerns R1.1 (HCT116-RDAC). Kind of experiment: MTT based cell survival assay, DAC resistant HCT116 clone R1.1. The conditions noted are these: for fold change (resistance index): IC50 R1.1 / IC50 HCT116. As for the experimental part:
as §1, §2, §3, §4

The test system of the next experiment is HCT116. The experiment can be described thus: MTT based cell survival assay, parental HCT116. The conditions noted are these: HCT116 parental, MTT, 72 h drug treatment; read-out: Mean IC50. As to the method:
To study the mechanism of resistance towards DNA methylation inhibitor, 2′-deoxy-5-azacytidine, we used the human colorectal cancer cell line (HCT116), human promyelocytic leukemia cells (HL-60), and human breast adenocarcinoma cell line (MCF-7) obtained from American Type Culture Collection (Manassas, Va.). The cell lines were cultured in complete growth media (Sigma-Aldrich, St. Louis, Mo.), supplemented with fetal bovine serum (FBS, PAN-Biotech GmbH, Aidenbach, Germany), 100 U/mL penicillin (Biotika, Slovenská L'upča, Slovak Republic) and 50 μg/mL streptomycin (Sigma-Aldrich), and the cultures were maintained at 37° C. and 5% CO2, in a humidified incubator. The cell line, HCT116 was grown in McCoy's 5 A medium supplemented with 10% FBS and 3 mM L-glutamine (Sigma-Aldrich), HL-60 was grown in Iscove's Modified Dulbecco's Medium with 20% FBS, and MCF-7 was grown in RPMI-1640 medium with 10% FBS.
The method is primarily based on reduction of yellow colored tetrazolium salt, 3-(4,5-dimethylthiazol-2-yl)-2,5-diphenyltetrazolium bromide (MTT) to insoluble purple colored formazan crystals by NAD(P)H-dependent oxidoreductase enzymes in mitochondria of the viable cell. The intensity of the purple color produced on solubilization of the formazan crystals is directly proportional to the number of viable cells (Meerloo J. V. et al., Methods in Molecular Biology 2011; 731, 237-45).
as §3, with “To determine the IC50 of the epigenetic drugs (Tocris Bioscience, Bristol, United Kingdom), four independent experiments were performed using triplicate wells of 96 well plates. Cells” for “Cells”, “[…],” for “After 72 h of drug treatment,”
as §4

A further experiment has as its system R1.4 (HCT116-RDAC). The experiment can be described thus: MTT based cell survival assay, DAC resistant HCT116 clone R1.4. The note with it: for fold change (resistance index): IC50 R1.4 / IC50 HCT116. As for the experimental part:
as §1, §2, §3, §4

In the next experiment the test system is R2.2 (HCT116-RDAC). The experiment can be described thus: MTT based cell survival assay, DAC resistant HCT116 clone R2.2. The conditions noted are these: for fold change (resistance index): IC50 R2.2 / IC50 HCT116. As for the experimental part: as §1, §2, §3, §4
A further experiment deals with R2.1 (HCT116-RDAC). Kind of experiment: MTT based cell survival assay, DAC resistant HCT116 clone R2.1. The conditions noted are these: for fold change (resistance index): IC50 R2.1 / IC50 HCT116. As to the method: as §1, §2, §3, §4

SMILES strings stand for the structures.

For `CCOC(=O)CCNc1cc(N2CCc3ccccc3CC2)nc(-c2ccccn2)n1` [GSK J4], the “fold change (resistance index)” value in the experiment with R1.2 (HCT116-RDAC) was “(1.30) fold”; in the experiment on R1.3 (HCT116-RDAC), “(1.39) fold”; in the experiment with R1.1 (HCT116-RDAC) it was “(1.52) fold”; in the experiment on R1.4 (HCT116-RDAC), “(1.34) fold”; in the experiment with R2.2 (HCT116-RDAC), “(1.87) fold”; in the experiment on R2.1 (HCT116-RDAC) it was “(2.11) fold”. Moreover, the IC50 came out at 2.95 µM in the experiment on R1.2 (HCT116-RDAC) (R1.2, MTT, 72 h drug treatment, read-out: Mean IC50); 3.18 µM with R1.3 (HCT116-RDAC) (R1.3, MTT, 72 h drug treatment, read-out: Mean IC50); 3.45 µM with R1.1 (HCT116-RDAC) (R1.1, MTT, 72 h drug treatment, read-out: Mean IC50); 2.28 µM in the experiment with HCT116; 3.05 µM in the experiment with R1.4 (HCT116-RDAC) (R1.4, MTT, 72 h drug treatment, read-out: Mean IC50); 4.25 µM with R2.2 (HCT116-RDAC) (R2.2, MTT, 72 h drug treatment, read-out: Mean IC50). The compound also yielded a concentration for half-maximal inhibition (IC50) with R2.1 (HCT116-RDAC) (R2.1, MTT, 72 h drug treatment) of 4.81 µM.

For the compound `Cl.Nc1nccc2c1ncn2[C@@H]1C=C(CO)[C@@H](O)[C@H]1O` [DZNep, 3-Deazaneplanocin A hydrochloride], the “fold change (resistance index)” value with R1.2 (HCT116-RDAC), with R1.3 (HCT116-RDAC), in the experiment on R1.1 (HCT116-RDAC), in the experiment with R1.4 (HCT116-RDAC), in the experiment with R2.2 (HCT116-RDAC) and in the experiment with R2.1 (HCT116-RDAC) was “(30.34) fold” in each case. For the same compound, the IC50 in the experiment on HCT116 was determined as 0.82 µM.
